A short description of the series: Tmax for Glyburide following single oral co-administration of 5 mg glyburide and 500 mg metformin hydrochloride to feeding subjects. In kind it is ADME, organism-based. The conditions noted are these: human, in vivo, dietary status Fed, dosed compound id 13, dosed compound name GLYBURIDE, regimen Single dose, tissue Plasma.

What is called Tmax is the time from dosing to the highest level. On to `COc1ccc(Cl)cc1C(=O)NCCc1ccc(S(=O)(=O)NC(=O)NC2CCCCC2)cc1` [GLYBURIDE], for which the Tmax came to 2.75 h.
